Where two headings read alike, the source gives them in different places.
Columns and labels:
[1] = test system: HT-29; settings: 24 h incubation, SRB; cited from earlier work
[2] = test system: C6; settings: cited from earlier work; for IC50: 24 h incubation, SRB
[3] = test system: U87 MG; settings: 24 h incubation, SRB; cited from earlier work
[4] = test system: AMPK; settings: read-out: IC50,Sun,AMPK; cited from earlier work
[5] = test system: RSK1; settings: read-out: IC50,Sun,RSK1; cited from earlier work
[6] = test system: U87 MG cells co-cultured with neonatal murine astrocytes; experiment: Confocal microscopy of treated co-cultures (PKH26, DAPI); format: cell-based, human; settings: IC50,U87 MG doses, 24 h
[7] = test system: U87 MG cells; experiment: Cell cycle/DNA content by flow cytometry; format: cell-based, human; settings: 24 h at IC50 (1 8.0 μM, Sun 32 μM)
[8] = test system: astrocytes; experiment: Cell cycle/DNA content by flow cytometry; format: cell-based, mouse; settings: 24 h at IC50 (1 8.0 μM, Sun 32 μM)
[9] = test system: S. typhimurium TA98; experiment: Ames test; settings: TA98, positive control NPD 20.0 mg/plate
[10] = test system: S. typhimurium TA100; experiment: Ames test; settings: TA100, positive control NPD 2.0 mg/plate
[11] = test system: U87 MG human glioblastoma; experiment: In vivo anti-glioblastoma activity
[12] = test system: F98-cell; set-up: method as in earlier work; settings: post-neutron irradiation (2 Gy), cited from earlier work
[13] = 1 at 1 mg/kg/day, Tmz at 4 mg/kg/day, ip three times a week

Compound: CS(=O)(=O)CCNCc1ccc(-c2ccc3ncnc(Nc4ccc(OCc5cccc(F)c5)c(Cl)c4)c3c2)o1 [Lap, lapatinib]
- IC50 [1]: 6.25 ± 0.05 µM
- IC50 [2]: > 100 µM
- percent of cells survival at 100 μM ([2]; C6, 100 μM): 89 ± 5%
- percentages of cell survival at 100 μM ([2]; C6, 100 μM): 89 ± 5%
- IC50 [3]: 54 ± 14 µM

Compound: CCN(CC)CCNC(=O)c1c(C)[nH]c(/C=C2\C(=O)Nc3ccc(F)cc32)c1C [Sun, sunitinib]
- IC50 [4]: 0.32 µM
- IC50 [1]: 6.25 ± 0.04 µM
- IC50 [2]: 36 ± 10 µM
- DAPI nuclei staining [6]: chromatin condensation
- U87 MG population (PKH26 dye) compared to the control [6]: decrease of U87 MG population
- effect on cell cycle distribution [7]: increase in the percentage of both astrocytes and U87 MG cells in the sub-G1 phase
- effect on cell cycle distribution [8]: increase in the percentage of both astrocytes and U87 MG cells in the sub-G1 phase
- IC50 [3]: 32 ± 4 µM

Compound: Nc1ccc([N+](=O)[O-])cc1N [Positive control, 4-Nitro-o-phenylendiamine]
- Number of revertants [9]: 295 ± 11
- Number of revertants [10]: 704 ± 6

Compound: Cn1nnc2c(C(N)=O)ncn2c1=O [Tmz, temozolomide]
- mouse survival time [11, 13]: 27 days
- time to mouse deaths [11, 13]: 23 days
- median survival ([11]; Tmz 4 mg/kg/day ip three times a week): 23 days

Compound: 10B-boronophenylalanine fructose [Compound 10BPA-fr]
- Surviving Fraction ([12]; 0.1 ppm equivalents of 10B): 89 ± 11%
- Surviving Fraction ([12]; 1.0 ppm equivalents of 10B): 71 ± 11%
- Surviving Fraction ([12]; 10.0 ppm equivalents of 10B): 92 ± 6%

Compound: C#Cc1cccc(Nc2ncnc3cc(OCCOC)c(OCCOC)cc23)c1 [Erl, erlotinib]
- IC50 [1]: > 100 µM
- IC50 [2]: > 100 µM
- IC50 [3]: 63 ± 5 µM
